How the values were obtained:
[1] = target: T1, NS5B proteins of HCV genotype 1b (Con1) (Hepatitis C virus genotype 1b, UniProt Q9WMX2); experiment: HCV NS5B RdRp enzyme assay; format: biochemical; settings: 1b enzyme
T1 construct: Each untagged protein was expressed with an 18 amino acid C-terminal truncation to enhance the solubility; made in house; host or cells: E. coli BL21(DE3), pET21a
How it was run: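 Untagged NS5B (C-terminal 18-aa truncation) in an on-bead scintillation-proximity format: poly A template (0.36 nM), biotin-dT12 primer (15 nM), 0.29 μM ³H-UTP, 7 nM enzyme, 20 mM Hepes pH 7.5, 2.5 mM MgCl2. Reactions ran 4–24 h at 30 °C (24 h runs with 24 h enzyme–inhibitor preincubation), stopped with EDTA. IC50 from ten concentrations, four-parameter logistic fit.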

[2] = tested on: genotype 1b (Con-1) HCV replicon in Huh-7 cells; experiment: HCV replicon luciferase assay; format: cell-based; settings: Hepatitis C virus, Huh-7, 72 h, 1b replicon, Huh-7, Renilla luciferase, 3 days incubation
How it was run: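 Huh-7 cells carrying Con-1 genotype 1b replicon with Renilla luciferase reporter seeded onto titrated compound in DMEM, 4% FBS, 0.5% DMSO, 3 days at 37 °C. Luciferase read with EnduRen substrate (7.5 μM final) after ≥1 h; EC50 by four-parameter logistic fit.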

HCV [3] = settings: cited from earlier work
HCV [4] = settings: combination therapy; cited from earlier work

T1 sequence (Q9WMX2 2420-2992): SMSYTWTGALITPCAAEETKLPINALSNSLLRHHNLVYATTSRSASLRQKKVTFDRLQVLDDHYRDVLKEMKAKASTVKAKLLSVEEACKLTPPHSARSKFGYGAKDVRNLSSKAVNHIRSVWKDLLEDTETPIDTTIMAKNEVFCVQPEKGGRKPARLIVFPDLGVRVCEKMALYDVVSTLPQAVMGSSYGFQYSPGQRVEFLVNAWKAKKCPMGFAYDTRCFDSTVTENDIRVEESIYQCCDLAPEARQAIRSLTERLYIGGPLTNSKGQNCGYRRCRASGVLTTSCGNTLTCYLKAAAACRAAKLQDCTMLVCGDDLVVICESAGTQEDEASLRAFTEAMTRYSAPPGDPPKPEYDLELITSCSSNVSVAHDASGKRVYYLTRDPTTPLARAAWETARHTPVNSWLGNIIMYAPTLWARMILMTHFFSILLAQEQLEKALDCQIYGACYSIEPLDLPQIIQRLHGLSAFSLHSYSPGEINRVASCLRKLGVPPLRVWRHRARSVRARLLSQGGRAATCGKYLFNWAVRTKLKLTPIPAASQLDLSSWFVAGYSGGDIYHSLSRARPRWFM

CNC(=O)c1c(-c2ccc(F)cc2)oc2ccc(-c3cc(C(=O)NC4(c5ncccn5)CC(F)(F)C4)cc(F)c3C)c(F)c12 [Example 17, 5-(5-((3,3-Difluoro-1-(pyrimidin-2-yl)cyclobutyl)carbamoyl)-3-fluoro-2-methylphenyl)-4-fluoro-2-(4-fluorophenyl)-N-methylbenzofuran-3-carboxamide]
IC50 [1]: 250 nM
EC50 [2]: 10 nM

CNC(=O)c1c(-c2ccc(F)cc2)oc2ccc(-c3cc(C(=O)NC4(c5ncccn5)CC(F)(F)C4)c(OC)cc3C)c(F)c12 [Example 18, 5-(5-(3,3-Difluoro-1-(pyrimidin-2-yl)cyclobutylcarbamoyl)-4-methoxy-2-methylphenyl)-4-fluoro-2-(4-fluorophenyl)-N-methylbenzofuran-3-carboxamide]
IC50 [1]: 140 nM
EC50 [2]: 10 nM

CNC(=O)c1c(-c2ccc(F)cc2)oc2ccc(-c3cc(C(=O)NC4(c5ncccn5)CC(F)C4)c(OC)cc3C)c(F)c12 (stereo not shown) [Example 19, 4-Fluoro-5-(5-(3-fluoro-1-(pyrimidin-2-yl)cyclobutylcarbamoyl)-4-methoxy-2-methylphenyl)-2-(4-fluorophenyl)-N-methylbenzofuran-3-carboxamide]
IC50 [1]: 120 nM
EC50 [2]: 5.26 nM

CNC(=O)c1c(-c2ccc(F)cc2)oc2ccc(-c3cc(C(=O)NC4(c5ncccn5)CC(F)C4)cc(F)c3C)c(F)c12 (stereo not shown) [Example 20, 4-Fluoro-5-(3-fluoro-5-(3-fluoro-1-(pyrimidin-2-yl)cyclobutylcarbamoyl)-2-methylphenyl)-2-(4-fluorophenyl)-N-methylbenzofuran-3-carboxamide]
IC50 [1]: 90 nM
EC50 [2]: 6.16 nM

CCN(c1cc2oc(-c3ccc(F)cc3)c(C(=O)NC)c2cc1-c1cccc(C(=O)NC2(c3ncccn3)CC(F)C2)c1)S(C)(=O)=O (stereo not shown) [Example 25, 6-(N-ethylmethylsulfonamido)-5-(3-((3-fluoro-1-(pyrimidin-2-yl)cyclobutyl)carbamoyl)phenyl)-2-(4-fluorophenyl)-N-methylbenzofuran-3-carboxamide]
IC50 [1]: 1.37 nM
EC50 [2]: 5.29 nM

CNC(=O)c1c(-c2ccc(F)cc2)oc2cc(CCC(F)(F)F)c(-c3ccc(F)c(C(=O)NC4(c5ncccn5)CC(OC(F)F)C4)c3)cc12 (stereo not shown) [Example 42, 5-(3-((3-(Difluoromethoxy)-1-(pyrimidin-2-yl)cyclobutyl)carbamoyl)-4-fluorophenyl)-2-(4-fluorophenyl)-N-methyl-6-(3,3,3-trifluoropropyl)benzofuran-3-carboxamide]
IC50 [1]: 7.6 nM
EC50 [2]: 5.73 nM

CNC(=O)c1c(-c2ccc(F)cc2)oc2cc(CCC(F)(F)F)c(-c3ccc(OC)c(C(=O)NC4(c5ncccn5)CC(OC(F)F)C4)c3)cc12 (stereo not shown) [Example 43, 5-(3-((3-(Difluoromethoxy)-1-(pyrimidin-2-yl)cyclobutyl)carbamoyl)-4-methoxyphenyl)-2-(4-fluorophenyl)-N-methyl-6-(3,3,3-trifluoropropyl)benzofuran-3-carboxamide]
IC50 [1]: 10 nM
EC50 [2]: 5.6 nM

CCCc1cc2oc(-c3ccc(F)cc3)c(C(=O)NC)c2cc1-c1cccc(C(=O)NC2(c3ncccn3)CC(OC(F)(F)F)C2)c1 (stereo not shown) [Example 44, 2-(4-Fluorophenyl)-N-methyl-6-propyl-5-(3-((1-(pyrimidin-2-yl)-3-(trifluoromethoxy)cyclobutyl)carbamoyl)phenyl)benzofuran-3-carboxamide]
IC50 [1]: 5.87 nM
EC50 [2]: 9.51 nM

CNC(=O)c1c(-c2ccc(F)cc2)oc2cc(N(CCO)S(C)(=O)=O)c(C3CC3)cc12 [HCV-796]
hepatic toxicity (HCV [3]; extended dosing of the combination regimens): hepatic toxicity observed
HCV RNA levels in patients (HCV [3]; patients, transient as single agent, more robust with interferon and ribavirin): reduce HCV RNA levels

alpha-interferon and ribavirin
sustained efficacy, share of patients (HCV [4]): 40%

From patent publication US11161837B2, “Benzofuran derivatives for the treatment of hepatitis C” (BRISTOL-MYERS SQUIBB COMPANY, priority 2016, dated 2021)
